Tests used:
[1] = test system: rat primary hippocampal neurons injured with Aβ; assay: Plate A: survival and neurite network of MAP-2 hippocampal neurons injured with Aβ1-42; format: cell-based; conditions: for Neurite length per neuron (total neurite network normalized by the number of neurons): FIG. 2C
Experimental: (§1) Bambuterol, referred to as MR36621 in the experiments was tested on rat primary hippocampal neurons that were injured with Aβ. Donezpil was used as a reference test compound.
(§2) Rat hippocampal neurons were cultured as described by Callizot et al., Operational dissection of β-amyloid cytopathic effects of cultured neurons, J. Neurosci. Res. 2013 May; 91(5): 706-16. Pregnant female rats of 17 days gestation (Rats Wistar; Janvier Labs France) were euthanized using a deep anesthesia with a CO2 chamber followed by a cervical dislocation. Fetuses were removed from the uterus and immediately placed in ice-cold L15 Leibovitz medium with a 2% penicillin (10,000 U/ml) and streptomycin (10 mg/ml) solution (PS) and 1% bovine serum albumin (BSA).
(§3) Hippocampal neurons were treated for 20 min at 37° C. with a trypsin-EDTA solution at a final concentration of 0.05% trypsin and 0.02% EDTA. The dissociation was stopped by adding Dulbecco's modified Eagle's medium (DMEM) with 4.5 g/liter of glucose, containing DNAse I grade II (final concentration 0.5 mg/ml) and 10% fetal calf serum (FCS). Cells were mechanically dissociated by three forced passages through the tip of a 10-ml pipette and then centrifuged at 515×g for 10 min at 4° C.
(§4) The supernatant was discarded, and the pellet was resuspended in a defined culture medium consisting of Neurobasal medium with a 2% solution of B27 supplement, 2 mmol/liter of L-glutamine, 2% of PS solution, and 10 ng/ml of brain-derived neurotrophic factor (BDNF). Viable cells were counted in a Neubauer cytometer, using the trypan blue exclusion test. Cells were seeded at a density of 20,000 per well in 96-well plates precoated with poly-L-lysine and cultured at 37° C. in an air (95%)-CO2 (5%) incubator. The medium was changed every 2 days.
The hippocampal neurons were exposed with A solutions after 17 days of culture. An Aβ1-42 preparation was done following the procedure described by Callizot et al., 2013. Aβ1-42 is a forty-two amino acid form of amyloid β in cerebrospinal fluid and is recognized by persons of ordinary skill in the art as a biomarker for Alzheimer's disease.
Aβ1-42 peptide was dissolved in the defined culture medium mentioned above, at an initial concentration of 40 μM. This solution was gently agitated for 3 days at 37° C. in the dark and immediately used after being properly diluted in culture medium to the concentrations used (20 μM (plate 13) or 2.5 μM (plate 14) corresponding to 2 μM or 0.25 μM of oligomers (AβO) respectively).
Bambuterol was placed in a culture medium and preincubated for 1 hour before Aβ application. An Aβ1-42 preparation was added to a final concentration of 20 or 2.5 μM (=2 μM or 0.25 μM of AβO, evaluated by automatic WB) diluted in control medium in presence of the compound.
Table I identifies two plates that exposed two concentrations of Aβ to different concentrations of bambuterol. The bambuterol was preincubated 1 hour before the application of Aβ.
Twenty-four hours after intoxication, the hippocampal neurons were fixed by a cold solution of ethanol (95%) and acetic acid (5%) for 5 min at −20° C. After permeabilization with 0.1% of saponin, cells were incubated for 2 hours with: • (a) chicken polyclonal antibody anti microtubule-associated-protein 2 (MAP-2), diluted at 1/1000 in PBS containing 1% fetal calf serum and 0.1% of saponin (this antibody allows the specific staining of neuronal cell bodies and neurites; and allow the study of neuronal cell death and neurite network); and • (b) mouse monoclonal antibody anti-phospho Tau (AT100) at dilution of 1/400 in PBS containing 1% fetal calf serum and 0.1% of saponin.
For each condition, multiple pictures (representative of the whole well area) per well were taken using ImageXpress (Molecular Devices) at 20× magnification. All images were taken with the same acquisition parameters. Analyses were performed automatically by using Custom Module Editor® (Molecular Devices). […]

[2] = test system: rat primary hippocampal neurons injured with Aβ; assay: Plate B: synapses evaluation (PSD95/SYN) in hippocampal neurons injured with Aβ1-42; format: cell-based; conditions: Aβ 2.5 μM 24 h, FIG. 3
Experimental: as §1
Rat hippocampal neurons were cultured as described by Callizot et al., Operational dissection of β-amyloid cytopathic effects of cultured neurons, J. Neurosci. Res. 2013 May; 91(5): 706-16. Pregnant female rats of 17 days gestation (Rats Wistar; Janvier Labs France) were euthanized using a deep anesthesia with a CO2 chamber followed by a cervical dislocation. […]
The supernatant was discarded, and the pellet was resuspended in a defined culture medium consisting of Neurobasal medium with a 2% solution of B27 supplement, 2 mmol/liter of L-glutamine, 2% of PS solution, and 10 ng/ml of brain-derived neurotrophic factor (BDNF). Viable cells were counted in a Neubauer cytometer, using the trypan blue exclusion test. […]
(§5) Bambuterol was placed in a culture medium and preincubated for 1 hour before Aβ application. An Aβ1-42 preparation was added to a final concentration of 20 or 2.5 μM (=2 μM or 0.25 μM of AβO, evaluated by automatic WB) diluted in control medium in presence of the compound. […]
The following endpoints were assessed: • Total number of synapses (overlapping between PSD95/SYN).

[3] = test system: hyperphosphorylated Tau (AT100) in MAP-2 positive neurons; assay: Plate A: phospho Tau (AT100) evaluation in MAP-2 hippocampal neurons injured with Aβ1-42; format: cell-based, rat; conditions: Aβ 20 μM 24 h, FIG. 2D
Experimental: as §1, §2, §3
as §4, with “days. […]” for “days.”
as §5

| Compound | Neuronal survival (number of MAP-2 positive neurons) ([1]; Aβ 20 μM 24 h, Donepezil 1 μM, FIG. 2A) | Total neurite network (MAP-2 positive neurons) ([1]; Aβ 20 μM 24 h, Donepezil 1 μM, FIG. 2B) | Neurite length per neuron (total neurite network normalized by the number of neurons) ([1]; Aβ 20 μM 24 h, Donepezil 1 μM) | Number of synapses (overlapping PSD95/SYN) ([2]; Donepezil 1 μM) | Hyperphosphorylation of Tau (AT100) ([3]; Donepezil 1 μM) | Total neurite network (MAP-2 positive neurons) ([1]; Aβ 20 μM 24 h, all investigated doses of bambuterol (1 nM to 1 μM), FIG. 2B) | Neurite length per neuron (total neurite network normalized by the number of neurons) ([1]; Aβ 20 μM 24 h, bambuterol 1 nM to 1 μM) | Neuronal survival (number of MAP-2 positive neurons) ([1]; Aβ 20 μM 24 h, bambuterol highest doses 500 nM and 1 μM, FIG. 2A) | Neuronal survival (number of MAP-2 positive neurons) ([1]; Aβ 20 μM 24 h, bambuterol low doses 1 nM to 100 nM, preincubated 1 h, FIG. 2A) | Dose of maximal effect on neurite network ([1]; Aβ 20 μM 24 h, bell-shape curve, FIG. 2B) [nM] | Dose of maximal effect on neuronal survival ([1]; Aβ 20 μM 24 h, bell-shaped curve, FIG. 2A) [nM] | Effects of bambuterol compared with Donepezil (summary of the examples) ([1]; bambuterol at a dose of 10 nM, hippocampal neurons injured with Aβ 1-42, overall statement over all readouts) | Number of synapses (overlapping PSD95/SYN) ([2]; bambuterol from 10 nM to 100 nM) | Hyperphosphorylation of Tau (AT100) ([3]; bambuterol all investigated doses (1 nM to 1 μM)) | Dose of maximal effect on hyperphosphorylation of Tau ([3]; bell-shape curve) [nM] |
| --- | --- | --- | --- | --- | --- | --- | --- | --- | --- | --- | --- | --- | --- | --- | --- |
| COc1cc2c(cc1OC)C(=O)C(CC1CCN(Cc3ccccc3)CC1)C2 (stereo not drawn) [Donepezil] | significantly protect neurons from death | significantly preserved almost the whole neurite network | longer | mitigated the loss of synapses | significantly mitigate this hyperphosphorylation | – | – | – | – | – | – | – | – | – | – |
| CN(C)C(=O)Oc1cc(OC(=O)N(C)C)cc(C(O)CNC(C)(C)C)c1 (stereo not drawn) [bambuterol] | – | – | – | – | – | exerted protective effects on the neurite network | did not change this parameter | did not show any protective effect | significant neuroprotective effects to a similar or higher extent to donepezil | 10 | 10 | comparable, and even greater, to those of Donepezil | able to preserve the number of synapses | significantly reduced the hyperphosphorylation of Tau | 10 |
